This series concerns human maximum recommended daily dose, FDA database. In words: DSSTox (FDAMDD) FDA Maximum (Recommended) Daily Dose Database. The following applies: active compounds read low. The gist of the method:
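MRDD values come from clinical trials with daily oral dosing, usually for 3–12 months, for the average adult, in mg/day converted to mg/kg-bw/day assuming 60 kg. Antineoplastic mg/m2 doses are divided by 37. Activity score maps log10(1/MRDD mmol) onto 1–100.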

Setting [1] is: TherapeuticCategory: antibacterial.
Setting [2] is: TherapeuticCategory: antipsychotic.
[3] abbreviates: TherapeuticCategory: antihistaminic.
Where [4] appears, read: TherapeuticCategory: antiulcerative.
Setting [5] is: TherapeuticCategory: vasodilator.
The mark [6] stands for this setting: TherapeuticCategory: cholinergic.
Setting [7] is: TherapeuticCategory: skeletal muscle relaxant.
Setting [8] is: TherapeuticCategory: diagnostic aid.
The mark [9] stands for this setting: TherapeuticCategory: antidiabetic.

66 compounds from PubChem BioAssay AID1195 (EPA DSSTox, 2008) can be followed below.

For the compound `Cn1nnnc1SCC1=C(C(=O)O)N2C(=O)[C@@H](NC(=O)[C@H](OC=O)c3ccccc3)[C@H]2SC1`, the maximum recommended daily dose (mmol/kg-bw/day) under setting [1] is 0.195.

In the case of `CO/N=C(\C(=O)N[C@@H]1C(=O)N2C(C(=O)O)=C(CSc3nnnn3C)CS[C@H]12)c1csc(N)n1`, the maximum recommended daily dose (mmol/kg-bw/day) under setting [1] is 0.13.

Take `CC(C)Cc1ccc(C(C)C(=O)O)cc1` (stereo unspecified): the maximum recommended daily dose (mmol/kg-bw/day) (TherapeuticCategory: anti inflammatory) was 0.194.

As for `CCC(=O)c1ccc2c(c1)N(CCCN1CCN(CCO)CC1)c1ccccc1S2`, the maximum recommended daily dose (mmol/kg-bw/day) under setting [2] was 0.0157.

Consider `CN(C)CCOC(c1ccc(Cl)cc1)c1ccccn1` (stereo unspecified), for which the maximum recommended daily dose (mmol/kg-bw/day) under setting [3] was 0.00138.

Turning to `CC(C)=CCOc1ccc(/C=C/C(=O)c2ccc(OCC=C(C)C)cc2OCC(=O)O)cc1`, the maximum recommended daily dose (mmol/kg-bw/day) under setting [4] is 0.0111.

Turning to `CN1CCN(C2=Nc3cc(Cl)ccc3Nc3ccccc32)CC1`, the maximum recommended daily dose (mmol/kg-bw/day) under setting [2] was 0.0459.

For the compound `CCN(CC)CCOC(=O)C(Cc1cccc2ccccc12)CC1CCCO1` (stereo unspecified), under setting [5], the maximum recommended daily dose (mmol/kg-bw/day) was 0.0261.

For the compound `NCCCC[C@H](N)C(=O)O`, the maximum recommended daily dose (mmol/kg-bw/day) (TherapeuticCategory: nutrient) is 0.684.

Take `CC(C)(O/N=C(\C(=O)N[C@@H]1C(=O)N2C(C(=O)[O-])=C(C[n+]3ccccc3)CS[C@H]12)c1csc(N)n1)C(=O)O`: the maximum recommended daily dose (mmol/kg-bw/day) under setting [1] is 0.243.

For the compound `CN(Cc1cnc2nc(N)nc(N)c2n1)c1ccc(C(=O)N[C@@H](CCC(=O)O)C(=O)O)cc1`, the maximum recommended daily dose (mmol/kg-bw/day) (TherapeuticCategory: antineoplastic, antirheumatic) was 0.0011.

Turning to `CC(C)(CO)C(O)C(=O)NCCCO` (stereo unspecified), the maximum recommended daily dose (mmol/kg-bw/day) under setting [6] is 0.0406.

Turning to `O=C1CC2(CCCC2)CC(=O)N1CCCCN1CCN(c2ncccn2)CC1`, the maximum recommended daily dose (mmol/kg-bw/day) (TherapeuticCategory: anxiolytic) was 0.00259.

Take `CCOc1ccc(Cc2nccc3cc(OCC)c(OCC)cc23)cc1OCC`: the maximum recommended daily dose (mmol/kg-bw/day) (TherapeuticCategory: antispasmodic) was 0.0253.

Regarding `CCN1CCN(C(=O)N[C@@H](C(=O)N[C@@H]2C(=O)N3[C@@H]2SC(C)(C)[C@@H]3C(=O)O)c2ccccc2)C(=O)C1=O`, under setting [1], the maximum recommended daily dose (mmol/kg-bw/day) is 0.773.

Take `CC(=O)Nc1ccc(O)cc1`: the maximum recommended daily dose (mmol/kg-bw/day) (TherapeuticCategory: analgesic, antipyretic) was 0.331.

With `O=C(c1ccc(OCCN2CCCCC2)cc1)c1c(-c2ccc(O)cc2)sc2cc(O)ccc12`, the maximum recommended daily dose (mmol/kg-bw/day) (TherapeuticCategory: antiosteoporotic, antiestrogen) was 0.0211.

For the compound `CCCCC[C@H](O)/C=C/[C@H]1[C@H](O)CC(=O)[C@@H]1CCCCCCC(=O)O`, under setting [5], the maximum recommended daily dose (mmol/kg-bw/day) was 2.82e-07.

Regarding `CCC1(C2=CCCCC2)C(=O)NC(=O)NC1=O`, where the note is “TherapeuticCategory: sedative, hypnotic”, the maximum recommended daily dose (mmol/kg-bw/day) was 0.0282.

`CC1(C)S[C@@H]2[C@H](NC(=O)C3(N)CCCCC3)C(=O)N2[C@H]1C(=O)O`: the maximum recommended daily dose (mmol/kg-bw/day) under setting [1] was 0.0975.

For the compound `C=CCN1CC[C@]23c4c5ccc(O)c4O[C@H]2C(=O)CC[C@@]3(O)[C@H]1C5`, the maximum recommended daily dose (mmol/kg-bw/day) (TherapeuticCategory: narcotic antagonist) is 0.000305.

In the case of `CCC[C@@H]1C[C@@H](C(=O)N[C@@H]([C@H]2O[C@H](SC)[C@H](O)[C@@H](O)[C@H]2O)[C@H](C)Cl)N(C)C1`, under setting [1], the maximum recommended daily dose (mmol/kg-bw/day) is 0.0706.

Consider `C[C@]12CCC(=O)C=C1C=C[C@@H]1[C@@H]2CC[C@@]2(C)[C@H]1CC[C@@]2(O)CCC(=O)O`, for which the maximum recommended daily dose (mmol/kg-bw/day) (TherapeuticCategory: diuretic) is 0.0371.

With `O=C1C(CCS(=O)c2ccccc2)C(=O)N(c2ccccc2)N1c1ccccc1` (stereo unspecified), the maximum recommended daily dose (mmol/kg-bw/day) (TherapeuticCategory: uricosuric) was 0.0329.

For the compound `COc1ccnc(CS(=O)c2nc3ccc(OC(F)F)cc3[nH]2)c1OC` (stereo unspecified), under setting [4], the maximum recommended daily dose (mmol/kg-bw/day) is 0.00174.

As for `CCCCN1CCCCC1C(=O)Nc1c(C)cccc1C` (stereo unspecified), the maximum recommended daily dose (mmol/kg-bw/day) (TherapeuticCategory: local anesthetic) is 0.013.

For the compound `CN1CCN(CC(=O)N2c3ccccc3C(=O)Nc3cccnc32)CC1`, the maximum recommended daily dose (mmol/kg-bw/day) under setting [4] is 0.00711.

For `N[C@@H](CCC(=O)N[C@@H](CS)C(=O)NCC(=O)O)C(=O)O`, where the note is “TherapeuticCategory: none”, the maximum recommended daily dose (mmol/kg-bw/day) was 0.0163.

For the compound `CCN(CC)CCCC(C)Nc1c2ccc(Cl)cc2nc2ccc(OC)cc12` (stereo unspecified), the maximum recommended daily dose (mmol/kg-bw/day) (TherapeuticCategory: antithelmintic, antimalarial) is 0.0125.

For `CC(=O)O[C@H]1C[C@@H]2CC[C@@H]3[C@H](CC[C@@]4(C)[C@H]3C[C@H](N3CC[N+](C)(C)CC3)[C@@H]4OC(C)=O)[C@@]2(C)C[C@@H]1N1CC[N+](C)(C)CC1`, the maximum recommended daily dose (mmol/kg-bw/day) under setting [7] was 0.000118.

With `Cc1onc(-c2ccccc2)c1C(=O)N[C@@H]1C(=O)N2[C@@H]1SC(C)(C)[C@@H]2C(=O)O`, the maximum recommended daily dose (mmol/kg-bw/day) under setting [1] was 0.249.

On to `NC(=O)c1cnccn1`, for which the maximum recommended daily dose (mmol/kg-bw/day) under setting [1] is 0.244.

`CCOC(=O)Nc1ccc2c(c1)N(C(=O)CCN1CCOCC1)c1ccccc1S2`: the maximum recommended daily dose (mmol/kg-bw/day) (TherapeuticCategory: antiarrhythmic) is 0.0351.

Regarding `CC(=O)[C@]1(O)Cc2c(O)c3c(c(O)c2[C@@H](O[C@H]2C[C@H](N)[C@H](O)[C@H](C)O2)C1)C(=O)c1c(O)cccc1C3=O`, for the setting “TherapeuticCategory: antineoplastic”, the maximum recommended daily dose (mmol/kg-bw/day) was 0.00132.

Turning to `CCN(CCO)CCCC(C)Nc1ccnc2cc(Cl)ccc12` (stereo unspecified), the maximum recommended daily dose (mmol/kg-bw/day) (TherapeuticCategory: antimalarial, antirheumatic, lupus erythematosus suppressant) was 0.0298.

For the compound `Cc1ccc(Cl)c(OCC(O)CNC(C)(C)C)c1` (stereo unspecified), for the setting “TherapeuticCategory: antihypertensive, antianginal, antiarrhythmic, antiglaucomic”, the maximum recommended daily dose (mmol/kg-bw/day) is 0.0245.

Turning to `CC(Cc1ccc(O)cc1)NCC(O)c1cc(O)cc(O)c1` (stereo unspecified), the maximum recommended daily dose (mmol/kg-bw/day) (TherapeuticCategory: bronchodilator, tocolytic) is 8.8e-05.

In the case of `O=C(O)COCCN1CCN(C(c2ccccc2)c2ccc(Cl)cc2)CC1` (stereo unspecified), the maximum recommended daily dose (mmol/kg-bw/day) under setting [3] is 0.0432.

Regarding `Cc1cc2nc3c(=O)[nH]c(=O)nc-3n(C[C@H](O)[C@H](O)[C@H](O)COP(=O)(O)O)c2cc1C`, the maximum recommended daily dose (mmol/kg-bw/day) (TherapeuticCategory: enzyme cofactor vitamin) was 0.0011.

Take `CN(C)CC/C=C1/c2ccccc2COc2ccccc21`: the maximum recommended daily dose (mmol/kg-bw/day) (TherapeuticCategory: antidepressant) is 0.0179.

Regarding `OC[C@@H](O)[C@@H](O)[C@H](O)[C@H](O)CO`, the maximum recommended daily dose (mmol/kg-bw/day) (TherapeuticCategory: diuretic, diagnostic aid) is 5.48.

For the compound `CC(C)(C(=O)c1cccnc1)c1cccnc1`, the maximum recommended daily dose (mmol/kg-bw/day) under setting [8] was 0.331.

Take `O=C(c1ccccc1)c1ccc2n1CCC2C(=O)O` (stereo unspecified): under “TherapeuticCategory: analgesic, anti inflammatory”, the maximum recommended daily dose (mmol/kg-bw/day) was 0.00979.

As to `C[C@@H](Cc1ccccc1)N(C)Cc1ccccc1`, for the setting “TherapeuticCategory: anorexic”, the maximum recommended daily dose (mmol/kg-bw/day) is 0.0104.

With `Cc1c(C(=O)O)c(O)cc2c1C(=O)c1c(O)c([C@@H]3O[C@H](CO)[C@@H](O)[C@H](O)[C@H]3O)c(O)c(O)c1C2=O`, under “TherapeuticCategory: none”, the maximum recommended daily dose (mmol/kg-bw/day) was 0.0169.

For `CN(C)[C@@H]1C(=O)C(C(=O)NCN2CCCC2)=C(O)[C@@]2(O)C(=O)C3=C(O)c4c(O)cccc4[C@@](C)(O)C3C[C@@H]12` (stereo partly specified), under setting [1], the maximum recommended daily dose (mmol/kg-bw/day) was 0.0111.

For `CC(=O)O[C@H]1C[C@@H]2CC[C@@H]3[C@H](CC[C@@]4(C)[C@H]3C[C@H]([N+]3(C)CCCCC3)[C@@H]4OC(C)=O)[C@@]2(C)C[C@@H]1[N+]1(C)CCCCC1`, the maximum recommended daily dose (mmol/kg-bw/day) under setting [7] was 0.000136.

On to `CN1C(=O)NC(=O)C(C)(C2=CCCCC2)C1=O` (stereo unspecified), for which the maximum recommended daily dose (mmol/kg-bw/day) (TherapeuticCategory: sedative, hypnotic, anesthetic) was 0.0353.

For `CCOC(=O)C1(c2ccccc2)CCN(C)CC1`, the maximum recommended daily dose (mmol/kg-bw/day) (TherapeuticCategory: narcotic analgesic) was 0.0606.

As to `CO[C@H]1[C@@H](O)C[C@H](O[C@H]2[C@@H](O)C[C@H](O[C@H]3[C@@H](O)C[C@H](O[C@H]4CC[C@@]5(C)[C@H](CC[C@@H]6[C@@H]5C[C@@H](O)[C@]5(C)[C@@H](C7=CC(=O)OC7)CC[C@]65O)C4)O[C@@H]3C)O[C@@H]2C)O[C@@H]1C`, the maximum recommended daily dose (mmol/kg-bw/day) (TherapeuticCategory: cardiotonic) is 8.39e-06.

For `O=C(O)C1CCc2cc(C3CCCCC3)c(Cl)cc21` (stereo unspecified), the maximum recommended daily dose (mmol/kg-bw/day) (TherapeuticCategory: anti inflammatory, antipyretic) is 0.00269.

On to `CN(C)c1ccc2nc3ccc(=[N+](C)C)cc-3sc2c1`, for which the maximum recommended daily dose (mmol/kg-bw/day) (TherapeuticCategory: antimethemoglobinemic) is 0.0203.

For the compound `CCn1cc(C(=O)O)c(=O)c2cc3c(cc21)OCO3`, the maximum recommended daily dose (mmol/kg-bw/day) under setting [1] is 0.0957.

As for `CCCCCCCCCC(=O)O[C@H]1CC[C@H]2[C@@H]3CCC4=CC(=O)CC[C@@H]4[C@H]3CC[C@]12C`, the maximum recommended daily dose (mmol/kg-bw/day) (TherapeuticCategory: anabolic) is 0.00777.

As to `CC(=O)OCC(=O)[C@@]1(O)CC[C@H]2[C@@H]3CCC4=CC(=O)CC[C@]4(C)[C@H]3C(=O)C[C@@]21C`, under “TherapeuticCategory: glucocorticoid”, the maximum recommended daily dose (mmol/kg-bw/day) was 0.0124.

For `CC1=CC(=O)c2ccccc2C1=O`, the maximum recommended daily dose (mmol/kg-bw/day) (TherapeuticCategory: prothrombogenic vitamin) is 0.000193.

Take `O=C(O)Cn1cc(I)c(=O)c(I)c1`: under setting [8], the maximum recommended daily dose (mmol/kg-bw/day) is 0.196.

In the case of `Cc1ccc(S(=O)(=O)NC(=O)NN2CC3CCCC3C2)cc1` (stereo unspecified), under setting [9], the maximum recommended daily dose (mmol/kg-bw/day) is 0.0165.

Regarding `Cc1ccc(S(=O)(=O)NC(=O)NC2CCCCC2)cc1N`, under setting [9], the maximum recommended daily dose (mmol/kg-bw/day) was 0.0107.

Regarding `CC(=O)N[C@@H](CS)C(=O)O`, the maximum recommended daily dose (mmol/kg-bw/day) (TherapeuticCategory: mucolytic, corneal vulnerary) is 0.0613.

As to `CN(C)C(=O)Oc1ccc[n+](C)c1`, the maximum recommended daily dose (mmol/kg-bw/day) under setting [6] is 0.0766.

As to `CO/N=C(\C(=O)N[C@@H]1C(=O)N2C(C(=O)O)=C(CSc3nc(C)c(CC(=O)O)s3)CS[C@H]12)c1csc(N)n1`, the maximum recommended daily dose (mmol/kg-bw/day) under setting [1] was 0.057.

Consider `CCC1(C)CC(=O)NC1=O` (stereo unspecified), for which the maximum recommended daily dose (mmol/kg-bw/day) (TherapeuticCategory: anticonvulsant) is 0.118.

`NNc1nncc2ccccc12`: the maximum recommended daily dose (mmol/kg-bw/day) (TherapeuticCategory: antihypertensive) was 0.0208.

In the case of `O=C(CCCN1CCC(O)(c2cccc(C(F)(F)F)c2)CC1)c1ccc(F)cc1`, the maximum recommended daily dose (mmol/kg-bw/day) under setting [2] was 0.000325.

For `O=C1CSC2(CCN(CCCN3c4ccccc4Sc4ccc(Cl)cc43)CC2)N1`, the maximum recommended daily dose (mmol/kg-bw/day) under setting [2] is 0.0155.
